Assay results: patent publication US20240115549A1, “TREATMENT OF MENTAL DISORDERS” (GH Research Ireland Limited, priority 2022, published 2024)

Assays:
[1] = Pharmacokinetics of 5-MeO-DMT and bufotenine after inhalation; type: in vivo, human
[2] = system: Salmonella typhimurium TA98, TA100, TA1535 and TA1537; test: Bacterial mutation test, Salmonella typhimurium; type: cell-based; conditions: up to 5000 μg/plate, with and without S-9
From the text: (§1) These conditions included treatments at concentrations up to […] (the maximum recommended concentration according to current regulatory guidelines), in the absence and in the presence of a rat liver metabolic activation system (S-9).

[3] = system: Escherichia coli WP2 uvrA pKM101; test: Bacterial mutation test, Escherichia coli; type: cell-based; conditions: up to 5000 pg/plate, with and without S-9
From the text: as §1

[4] = LC-MS/MS of 5-MeO-DMT, bufotenine and 5-MIAA in breastmilk, serum and urine of a treated PPD patient; infant dose estimates; conditions: for Breastmilk concentration / Serum concentration / Urine concentration: second PPD patient, LC-MS/MS
[5] = 5 kg infant, three feeds of 250 ml
[6] = 8.5 hrs after last dose, inhaled 5-MeO-DMT
[7] = 24.0 hrs after last dose, inhaled 5-MeO-DMT
[8] = 120.0 hrs after last dose, inhaled 5-MeO-DMT
[9] = timepoint −24.0 hrs (pre-dosing), inhaled 5-MeO-DMT 6 mg then 12 mg

COc1ccc2[nH]cc(CCN(C)C)c2c1 [5-MeO-DMT]
Detectability in plasma ([1]; 3 hours after inhalation, 6-18 mg): no longer detectable
Accumulation upon repeated administration ([1]; repeat within 1 to 4 hours): No accumulation
Induction of mutation [2]: did not induce mutation
Induction of mutation [3]: did not induce mutation
DID per kg infant weight [4, 5]: 0.0001385 mg/kg/day
Total exposure of the infant (DID) [4, 5]: 0.0006924 mg/day
Detection in breastmilk ([4]; after 24 hours): did not detect any 5-MeO-DMT
Serum concentration at timepoints after 1 hour ([4]; all subsequent timepoints): below the lower limit of quantification
Breastmilk concentration ([4]; 1.0 hrs after last dose, inhaled 5-MeO-DMT): 2167.0 pg/mL
Breastmilk concentration ([4]; 2.5 hrs after last dose, inhaled 5-MeO-DMT): 560.6 pg/mL
Breastmilk concentration [4, 6]: 42.1 pg/mL
Breastmilk concentration [4, 7]: BLG
Breastmilk concentration [4, 8]: BLQ
Breastmilk concentration [4, 9]: BLQ
concentration at 1 h ([4]; female, human, serum, inhaled): 133 µg/mL
Serum concentration ([4]; serum, 1.0 hrs after last dose, inhaled 5-MeO-DMT): 0.0001329 µg/mL
Serum concentration ([4]; serum, 2.5 hrs after last dose, inhaled 5-MeO-DMT): BLQ
Serum concentration ([4]; serum, 24.0 hrs after last dose, inhaled 5-MeO-DMT): BLQ
Serum concentration ([4]; serum, 120.0 hrs after last dose, inhaled 5-MeO-DMT): BLQ
Serum concentration ([4]; serum, timepoint −24.0 hrs (pre-dosing), inhaled 5-MeO-DMT 6 mg then 12 mg): BLQ
Urine concentration [4, 6]: BLQ
Urine concentration [4, 7]: BLQ
Urine concentration [4, 8]: BLQ
Urine concentration [4, 9]: BLQ
